The values below come from paper PMC5209447, “Aryl-1,3,5-triazine ligands of histamine H4 receptor attenuate inflammatory and nociceptive response to carrageen, zymosan and lipopolysaccharide” (Inflammation Research, 2016).

Structures are written as SMILES.

The term inhibition denotes the percentage by which the read-out fell short of the control.

The target in this assay is T1, phosphodiesterase 4B1 (PDE 4B1) (Homo sapiens, UniProt Q07343).
T1 construct: gene PDE4B; PDE 4B1 (BPS Biosciences)
T1 sequence (Q07343 whole entry): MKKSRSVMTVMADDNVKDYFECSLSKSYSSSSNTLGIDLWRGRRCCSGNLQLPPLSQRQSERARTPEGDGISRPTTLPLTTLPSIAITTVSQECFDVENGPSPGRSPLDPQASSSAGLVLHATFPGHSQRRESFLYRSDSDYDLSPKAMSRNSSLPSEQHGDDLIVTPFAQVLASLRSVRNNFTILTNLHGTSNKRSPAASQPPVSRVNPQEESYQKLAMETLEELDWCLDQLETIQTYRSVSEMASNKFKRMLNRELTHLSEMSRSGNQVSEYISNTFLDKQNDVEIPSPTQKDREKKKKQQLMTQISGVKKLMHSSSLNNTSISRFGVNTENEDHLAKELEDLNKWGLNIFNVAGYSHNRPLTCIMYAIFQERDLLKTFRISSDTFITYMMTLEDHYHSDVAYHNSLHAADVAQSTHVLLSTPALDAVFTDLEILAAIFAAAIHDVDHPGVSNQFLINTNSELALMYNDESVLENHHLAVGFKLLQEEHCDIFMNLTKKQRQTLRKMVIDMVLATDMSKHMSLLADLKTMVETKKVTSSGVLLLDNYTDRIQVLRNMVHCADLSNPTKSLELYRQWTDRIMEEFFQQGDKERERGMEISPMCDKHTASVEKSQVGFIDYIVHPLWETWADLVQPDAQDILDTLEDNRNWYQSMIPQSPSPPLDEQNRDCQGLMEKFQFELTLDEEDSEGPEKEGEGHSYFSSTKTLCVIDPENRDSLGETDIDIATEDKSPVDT
Description: PDELight bioluminescent cAMP phosphodiesterase assay, % inhibition at […]. The format is biochemical. To be noted: read-out: PDE 4B1 inhibition (%) ± SEM.

Take `Nc1nc(N)nc(-c2cc(Cl)ccc2Cl)n1` [Irsogladine]: the inhibition at 100 µM was found to be 31 ± 0.5%.

Take `COc1ccc(C2CNC(=O)C2)cc1OC1CCCC1` (centres unmarked) [Rolipram]: the inhibition at 50 µM was found to be 95%.
